Columns and labels:
human EP4 = biological target: T1, human EP4 (Homo sapiens, UniProt P35408); assay: Receptor affinity, tritium-labeled PGE2 binding to membranes of transfected COS-7 cells; conditions: binding affinity ratio
T1 construct: expressed in transfected cells; host or cells: COS-7 (membranes)
Procedure: PG receptor affinity of compound F and compound J of the present invention was evaluated. Compound F used was one synthesized in Example 9, and compound J was prepared by separating and purifying the compound synthesized in Example 14 with a column (the same preparations were used in the following Examples). COS-7 cells were transfected with the genes of mouse EP4, human EP1-4 or human IP to overexpress the receptor and then the cell membranes were collected. […] The dissociation constant Kd value was obtained and inhibition constant Ki value of each test compound was determined in a conventional method.

[1] = In vitro metabolic stability: NADPH-independent β oxidation reaction in rat liver mitochondria fraction; type: in vitro ADME; conditions: 37° C., 30 min, tested as isomer mixtures, average±SD of 3 experiments
Procedure: A mixture of the compound F and compound J of the present invention described in Table 1 (F:J=52:41, synthesized in Example 14), and a mixture of compounds wherein the tetrazole groups at C-1 of compound F and compound J are respectively substituted by carboxylic acid (referred to as carboxylate form, F:J=54:34, synthesized in Example 15) were tested.
First, a mitochondria fraction was prepared from the rat liver according to the following Reference A. Then, in reference to the method of […] et al. described in the following References B and C, an NADPH-independent β oxidation reaction was studied. The reaction was carried out at 37° C. for 30 min, and stopped with a methanol solution containing a suitable internal standard substance. Each compound was quantified by the internal standard method using a high performance liquid chromatography mass spectrometry apparatus (LC-MS/MS). The compound residual ratio after metabolic reaction of compounds F, J and each carboxylate form thereof in rat mitochondria fraction is shown in the following Table 2 in average±standard deviation of 3 experiments.

human EP1 = biological target: T2, human EP1 (Homo sapiens, UniProt P34995); assay: Receptor affinity, tritium-labeled PGE2 binding to membranes of transfected COS-7 cells; conditions: COS-7 cell membranes
T2 construct: expressed in transfected cells; host or cells: COS-7 (membranes)
T2 sequence (P34995 1-402): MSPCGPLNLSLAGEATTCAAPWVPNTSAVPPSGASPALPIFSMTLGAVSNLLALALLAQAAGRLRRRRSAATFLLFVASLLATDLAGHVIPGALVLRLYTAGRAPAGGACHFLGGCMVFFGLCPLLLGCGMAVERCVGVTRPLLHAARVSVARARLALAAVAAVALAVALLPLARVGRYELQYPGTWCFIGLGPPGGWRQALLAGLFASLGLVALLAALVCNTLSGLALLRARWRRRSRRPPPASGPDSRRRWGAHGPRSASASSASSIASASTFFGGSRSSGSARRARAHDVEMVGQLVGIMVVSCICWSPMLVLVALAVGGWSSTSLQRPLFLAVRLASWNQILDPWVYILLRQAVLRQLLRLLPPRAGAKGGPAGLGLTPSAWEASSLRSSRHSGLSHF
Procedure: PG receptor affinity of compound F and compound J of the present invention was evaluated. Compound F used was one synthesized in Example 9, and compound J was prepared by separating and purifying the compound synthesized in Example 14 with a column (the same preparations were used in the following Examples). COS-7 cells were transfected with the genes of mouse EP4, human EP1-4 or human IP to overexpress the receptor and then the cell membranes were collected. As a labeled ligand, tritium-labeled PGE2 was used for EPs; tritium-labeled iloprost, for IP. The dissociation constant Kd value was obtained and inhibition constant Ki value of each test compound was determined in a conventional method. As a reference control, PGE2 was used for EPs; beraprost sodium (BPS), for IP.

IL-2 = assay: Suppression of IL-2 production by anti-CD3/anti-CD28 stimulated CD4 positive T cells; type: cell-based; conditions: human CD4 positive T cells, anti-CD3 and anti-CD28 antibody, 24 hr, ELISA; geometric mean of three volunteers
Procedure: Using human peripheral blood, an anti-inflammatory effect of compounds F and J in vitro was studied. Blood was collected from 3 healthy volunteers, and CD4 positive T cells were prepared. Anti-CD3 antibody and anti-CD28 antibody were added, and 24 hr later the amounts of IL-2 and TNFα released in the medium were measured by ELISA. […] The amount of IP-10 released into the medium for 48 hr was measured with ELISA. In both cases, the test compound was added 30 min before stimulation.
Each value is a geometric mean of three volunteers.

[2] = tested on: concanavalin A-induced hepatitis; assay: Concanavalin A-induced hepatitis model in mice, prophylactic; type: in vivo, mouse; conditions: BALB/c mice, oral 1 hr before Con A; compound F 1 mg/10 mL/kg, prednisolone 5 mg/10 mL/kg
Procedure: The prophylactic effect of compound F on hepatitis was investigated using concanavalin A (hereinafter Con A)-induced hepatitis model.
BALB/c mice (female, 7 weeks old, Japan SLC) were purchased, acclimated for 1 week and used for the study. Except the no-induction group, Con A (type IV, Sigma-Aldrich) dissolved in saline was administered from the tail vein of the mice at a dose of 12.5 mg/10 mL/kg to induce hepatitis. Twenty hr later, the mice were subjected to laparotomy under ether anesthesia. A 0.5 mL of blood sample was collected from the caudal vena cava and heparinized plasma was obtained to measure plasma ALT and AST activities. Test substances were compound F (1 mg/10 mL solution), prednisolone (Nacalai Tesque, 5 mg/10 mL suspension (with 0.5 w/v % methylcellulose)) and water for injection (administered to the control group), which were orally administered at a volume of 10 mL/kg 1 hr before Con A injection. Seven to 9 animals were used for each group. After logarithmic transformation of the data, one-way analysis of variance was performed for statistical evaluation.

T cell transfer colitis = assay: CD4+CD25- T cell transfer colitis model in mice; type: in vivo, mouse; conditions: C.B-17/Icr-scid mice, oral 1 mg/kg once a day
From the text: The effect on Crohn's disease, another type of inflammatory bowel disease, was studied. T cell transfer model is well known as a Crohn's disease model, which develops chronic […] or enteritis (see: References F, G, H). In addition, it can also be regarded as an animal model of intestinal Behcet's disease or simple ulcer, suffering from similar intestinal ulcer accompanied by activation of T cells (see: References I, J).
Female BALB/cA Jcl mice, 6 weeks old, body weight 19-23 g (CLEA Japan, Inc.) and female C.B-17/Icr-scid mice (6 weeks old, CLEA Japan, Inc.) were purchased, acclimated for 1 week and used for the study.
After laparotomy under ether anesthesia, BALB/cA Jcl mice were exsanguinated to death through the abdominal aorta and caudal vena cava, and the spleen was isolated. Splenocytes were prepared from the spleen and then CD4^+CD25^− T cells were prepared with a CD4^+ T cell Isolation Kit (No. 130-090-860, Milky Biotech Co., Ltd.) and CD25-Biotin antibody (No. 130-092-569, Milky Biotech Co., Ltd.). The cells were separated using the autoMACS Separator (Milky Biotech Co., Ltd.). The separated CD4^+CD25^− T cells were suspended in physiological phosphate buffer solution, and 2.5×10^5 cells per animal were intraperitoneally administered to C.B-17/Icr-scid mice to induce colitis.
One mg/kg of compound F or prednisolone was initially administered at 5 hr before transfer of CD4^+CD25^− T cells, and orally administered thereafter once a day, daily, for 20 days. To the control group was orally administered a solvent (1 vol % ethanol solution) at 10 mL/kg. A clinical endpoint was the sum of stool consistency score (0-5), fecal occult blood score (0-4) and body weight decrease score (0-5), termed as the Disease Activity Index score (hereinafter to be abbreviated as DAI score: highest score 14). The stool consistency score was graded for the hardness of stool as normal (0), slightly loose (1), somewhat loose (2), loose (3), considerably loose (4) and diarrhea (5). The fecal occult blood score was evaluated in the same manner as in Example 23. The body weight decrease score was graded for the changes in the body weight as increase (0), decrease of less than 3% (1), decrease of not less than 3% and less than 6% (2), decrease of not less than 6% and less than 9% (3), decrease of not less than 9% and less than 12% (4), and decrease of not less than 12% (5). Eight to 10 mice were used for each group and the results were expressed as average.

T1 sequence (P35408 whole entry): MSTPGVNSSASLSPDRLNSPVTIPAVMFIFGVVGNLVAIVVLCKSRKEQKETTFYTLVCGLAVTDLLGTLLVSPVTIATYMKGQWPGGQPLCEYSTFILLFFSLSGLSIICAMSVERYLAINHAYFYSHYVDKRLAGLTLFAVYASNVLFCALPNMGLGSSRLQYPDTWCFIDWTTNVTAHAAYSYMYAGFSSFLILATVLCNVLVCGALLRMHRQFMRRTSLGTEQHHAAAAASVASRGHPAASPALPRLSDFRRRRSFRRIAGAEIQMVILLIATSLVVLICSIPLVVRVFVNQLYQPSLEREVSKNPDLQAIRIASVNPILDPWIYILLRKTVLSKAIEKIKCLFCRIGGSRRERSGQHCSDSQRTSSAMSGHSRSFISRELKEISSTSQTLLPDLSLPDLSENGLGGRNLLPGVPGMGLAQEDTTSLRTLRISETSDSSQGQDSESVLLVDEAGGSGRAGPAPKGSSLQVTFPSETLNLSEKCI

Cc1cccc([C@H](C)[C@H](O)/C=C/[C@@H]2[C@@H]3[C@H](C[C@H]2O)O/C(=C\CCCc2nnn[nH]2)C3(F)F)c1 [Compound J, 4-[(Z)-(1S,5R,6R,7R)-6-[(1E,3R,4S)-3-hydroxy-4-(m-tolyl)-1-pentenyl]-7-hydroxy-2-oxa-4,4-difluoro-bicyclo[3.3.0]octan-3-ylidene]-1-(tetrazol-5-yl)butane]
Affinity for human EP4 higher than to human IP (human EP4): 40 fold | Residual ratio of parent compound after β-oxidation reaction [1]: 90.1 ± 6.9%

CCCCC[C@H](O)/C=C/[C@H]1[C@H](O)CC(=O)[C@@H]1C/C=C\CCCC(=O)O [PGE2]
Ki (human EP1): 2.9 nM | IC50 (IL-2): 0.062 nM

C[C@]12C=CC(=O)C=C1CC[C@@H]1[C@@H]2[C@@H](O)C[C@@]2(C)[C@H]1CC[C@]2(O)C(=O)CO [prednisolone, reference compound]
Effect on increase of plasma ALT and plasma AST activities [2]: significantly and strongly suppressed the increase | Effect on body weight decrease score (T cell transfer colitis): clearly worsened the score | Effect on fecal occult blood score (T cell transfer colitis): suppressed an increase in the fecal occult blood score by almost the same level as the compound F administration | Effect on stool consistency score (T cell transfer colitis): failed to show a clear effect

Reference: US9034906B2, “EP4 agonist” (Asahi Glass Company, Limited, priority 2008, dated 2015)
